Data on one compound can be found in patent US10813920B2, “Drug for treating corneal endothelium by promoting cell proliferation or inhibiting cell damage” (THE DOSHISHA, priority 2013, dated 2020).

In assay [1] the test system is corneal endothelial cells. The experiment in a line: Western blotting of cyclin dependent kinase inhibiting factors and G1/S transition molecules in cultured corneal endothelial cells. Format: cell-based, human.
In assay [2] the test system is corneal endothelium. The experiment in a line: Partial rabbit corneal endothelial disorder model, eye drops. Format: in vivo. On the procedure: A stainless steel chip with a diameter of 7 mm was immersed in liquid nitrogen and cooled. The chip was contacted with the center portion of a corneal of a Japanese white rabbit (obtained from Oriental Bioservice) for 15 seconds under general anesthesia, such that corneal endothelial cells at the center portion partially fell off. Eye drops of SB203580 adjusted to 10 mM was then administered 4 times a day for 2 days at 50 μl per dose. As a control, eye drops of a base agent were administered in an eye in which a partial corneal endothelial disorder was similarly created, and a picture was taken. Further, the rabbit was euthanized and the corneal was extracted. The wounded area of the corneal endothelium was stained with alizarin red S (Nacalai Tesque, CI-58005) and observed. Furthermore, immunostaining was applied to corneal tissue with the cell proliferation marker Ki67. The same methodology as the aforementioned Examples or the like was used for immunostaining.

Assay [3] concerns human corneal endothelial cells. The experiment in a line: Decrease in cell density of cultured human corneal endothelial cells (phase difference microscope). Format: cell-based. Particulars: 1, 3, 10 μM; after 20 days; vs control. From the text: For corneal endothelial cells, cell density decreases about 0.5% annually with age in a living organism. Further, the cell density also decreases due to various corneal endothelial diseases. Cell culture causes hypertrophy of cells and cellular as in a living organism and cellular senescence like reduction as in a living organism, which is a decrease in cell density. In this regard, the effect of p38 MAP kinase signal inhibition was studied on cellular senescence like reduction, which is a decrease in corneal endothelial cell density. […] Decrease in cell density due to culturing was inhibited and the cell density increased in an SB203580 concentration-dependent manner (bottom panel: vertical axis indicates cell density (mm^2) and the horizontal axis indicates, from the left, control, SB203580 1 μM, 3 μM, and 10 μM. ** indicates statistical significance (p<0.05) with respect to the control).
Cellular senescence-like decrease similar to a living organism, such as hypertrophy and decrease in density of cells, occurs from cell culture. In this regard, the effect of p38 MAP kinase signal inhibition on cellular senescence-like decrease such as decrease in corneal endothelial cell density was studied. […]

Assay [4] has as its system corneal endothelium. The assay is described as follows: Monkey corneal endothelial partial disorder model, eye drops, Ki-67 immunostaining. Format: in vivo, cynomolgus monkey. Particulars: 3 mM eye drops, 50 μl, 4 times a day, right eye; vs base agent in left eye; 5 views per eye; p<0.01. On the procedure:
After a stainless steel bar with a diameter of 7 mm was cooled with liquid nitrogen, the bar was contacted with the corneal in both eyes of 2 cynomolgus monkeys (purchased from Shiga University of Medical Science). About 7 mm in diameter of the corneal endothelium fell off to make a partial disorder model.
50 μl of SB203580 (3 mM) eyedrops was then administered into the right eye 4 times a day. Similarly, eye drops of abase agent, which is phosphate buffer solution, were administered into the left eye as the control.
Expression of Ki-67 associated with cell proliferation was confirmed to be elevated after administration of SB203580 eye drops by immunostaining. The methodology of immunostaining was in accordance with the above-described Preparation Example 2. The antibodies were changed to antibodies to Ki-67 to conduct the experiment.
For a tissue staining inspection, cultured cells were immobilized with 4% formaldehyde for 10 minutes at room temperature (RT) and incubated for 60 minutes with 1% bovine serum albumin (BSA). The antibodies to Ki-67 were diluted 1:200 to conduct the inspection. For secondary antibodies, a 1:1000 dilution of Alexa Fluor® 488 labeling goat antimouse IgG (Life Technologies) was used. […] Slides were then observed under a fluorescence microscope (all-in-one fluorescence microscope, KEYENCE, Osaka, JAPAN). […]

Where [5] appears, read: Western blotting after 20 days, 10 μM and 30 μM vs control.
The mark [6] stands for this setting: Western blotting, 10 μM, after 12 hours and 24 hours.

Take `C[S+]([O-])c1ccc(-c2nc(-c3ccncc3)c(-c3ccc(F)cc3)[nH]2)cc1` (centres unmarked) [SB203580, 4-(4-fluorophenyl)-2-(4-methylsulfinylphenyl)-5-(4-pyridyl)-1H-imidazole]: in assay [1] (setting [5]), the “expression of p16” value is reported as “suppressed”, the “expression of p21” value is “suppressed” and the “expression of p27” value was “suppressed”. For the same compound, in assay [1] (setting [6]), the “Rb protein phosphorylation (p-pRb)” value is listed as “promoted”, the “cyclin D1 expression” value is reported as “promoted” and the “cyclin D3 expression” value was “promoted”. Further, in assay [2] (10 mM eye drops 4 times a day for 2 days, 50 μl per dose, 6 eyes each, vs control, p<0.01), the “wound area of corneal endothelium (alizarin staining)” value is recorded as “contracted significantly more”. The “transparency of cornea (anterior eye section picture)” value in assay [2] (10 mM eye drops 4 times a day for 2 days, 50 μl per dose, day 2) was “recovered quickly”. The “Expression of Ki67 in corneal tissue (ratio of Ki67 positive cells)” value in assay [2] (10 mM eye drops, vs control) is “significantly more cells”. Also, in assay [3], the “Decrease in cell density due to culture” value is given as “inhibited in a SB203580 concentration dependent manner”. Also, the “percentage of Ki67 positive cells in corneal endothelium” value in assay [4] is on record as “significantly more Ki67 positive cells”.
